In one assay the target is T1, PDGF-Ra (Homo sapiens, UniProt P16234).
T1 construct: host or cells: G-292 human osteosarcoma cells
Kind of assay: Inhibitory activity against PDGF-Ra phosphorylation by PDGF-AA stimulation using G292. The format is cell-based. The note with it: for IC50: > means inhibition at indicated concentration not more than 50%, < and << not less than 50%, read-out: PDGF (E) IC50; for inhibition at 0.1 µM: G292, figure in parentheses in >100( ), at 100 nM, read-out: PDGF (E) inhibition (%) at 100 nM. In outline: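 G-292 human osteosarcoma cells, serum-starved overnight in 0.1% FBS, were pretreated with compound in DMSO for 1 hr at 37 °C, then stimulated with 50 ng/ml PDGF-AA for 5 min. Lysates were captured on anti-phosphotyrosine PY-20 plates and probed with anti-PDGF-Ra plus HRP secondary; absorbance read at 450 nm.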

A further assay addresses T2, c-kit (Homo sapiens, UniProt P10721).
T2 construct: MO7e (human megakaryocytic leukemia cell line) which had been arrested for 20 hr; endogenous in cells; host or cells: MO7e human megakaryocytic leukemia cell line
Briefly: Inhibitory activity against c-kit autophosphorylation (MO7e cells, h-SCF). In kind it is cell-based. The note with it: for inhibition at 1 µM: Mo7e; for IC50: MO7e cells, h-SCF stimulation, read-out: c-kit IC50. The procedure, abridged: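 In this cellular autophosphorylation assay, compound-treated MO7e cells (1 hr) were challenged with human stem cell factor at 50 ng/ml for 5 min; detection relied on PY-20 capture and anti-c-kit/HRP immunodetection at 450 nm.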

Setting [1] is: figure in parentheses in −( ), at 1000 nM.

T1 sequence (P16234 24-1089): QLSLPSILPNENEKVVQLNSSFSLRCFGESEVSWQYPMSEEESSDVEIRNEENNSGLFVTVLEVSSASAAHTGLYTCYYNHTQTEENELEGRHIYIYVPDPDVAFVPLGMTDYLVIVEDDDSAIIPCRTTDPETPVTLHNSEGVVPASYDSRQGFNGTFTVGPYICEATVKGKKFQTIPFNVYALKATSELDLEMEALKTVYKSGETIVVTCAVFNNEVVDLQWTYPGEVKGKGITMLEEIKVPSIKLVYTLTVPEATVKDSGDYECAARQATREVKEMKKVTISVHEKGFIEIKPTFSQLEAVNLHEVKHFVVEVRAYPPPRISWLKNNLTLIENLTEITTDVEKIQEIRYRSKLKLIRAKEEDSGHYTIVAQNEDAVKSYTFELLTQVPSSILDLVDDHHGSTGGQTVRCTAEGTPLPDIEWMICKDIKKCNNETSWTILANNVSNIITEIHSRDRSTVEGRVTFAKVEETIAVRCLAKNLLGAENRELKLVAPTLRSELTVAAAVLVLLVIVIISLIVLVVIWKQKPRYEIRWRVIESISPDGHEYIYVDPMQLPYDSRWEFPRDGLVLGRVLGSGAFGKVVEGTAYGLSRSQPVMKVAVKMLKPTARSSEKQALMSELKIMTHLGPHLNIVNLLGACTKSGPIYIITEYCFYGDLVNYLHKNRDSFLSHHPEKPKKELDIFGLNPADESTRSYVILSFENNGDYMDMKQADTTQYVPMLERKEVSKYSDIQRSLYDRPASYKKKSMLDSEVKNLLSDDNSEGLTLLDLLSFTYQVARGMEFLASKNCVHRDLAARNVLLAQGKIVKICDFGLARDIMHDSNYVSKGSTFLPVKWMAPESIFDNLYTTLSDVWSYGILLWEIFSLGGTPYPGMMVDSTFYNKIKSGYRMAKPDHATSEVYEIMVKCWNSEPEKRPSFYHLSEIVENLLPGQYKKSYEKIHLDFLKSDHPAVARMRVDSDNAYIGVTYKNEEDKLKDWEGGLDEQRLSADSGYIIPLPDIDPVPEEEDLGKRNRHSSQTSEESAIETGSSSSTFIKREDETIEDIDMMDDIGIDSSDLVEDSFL
T2 sequence (P10721 26-976): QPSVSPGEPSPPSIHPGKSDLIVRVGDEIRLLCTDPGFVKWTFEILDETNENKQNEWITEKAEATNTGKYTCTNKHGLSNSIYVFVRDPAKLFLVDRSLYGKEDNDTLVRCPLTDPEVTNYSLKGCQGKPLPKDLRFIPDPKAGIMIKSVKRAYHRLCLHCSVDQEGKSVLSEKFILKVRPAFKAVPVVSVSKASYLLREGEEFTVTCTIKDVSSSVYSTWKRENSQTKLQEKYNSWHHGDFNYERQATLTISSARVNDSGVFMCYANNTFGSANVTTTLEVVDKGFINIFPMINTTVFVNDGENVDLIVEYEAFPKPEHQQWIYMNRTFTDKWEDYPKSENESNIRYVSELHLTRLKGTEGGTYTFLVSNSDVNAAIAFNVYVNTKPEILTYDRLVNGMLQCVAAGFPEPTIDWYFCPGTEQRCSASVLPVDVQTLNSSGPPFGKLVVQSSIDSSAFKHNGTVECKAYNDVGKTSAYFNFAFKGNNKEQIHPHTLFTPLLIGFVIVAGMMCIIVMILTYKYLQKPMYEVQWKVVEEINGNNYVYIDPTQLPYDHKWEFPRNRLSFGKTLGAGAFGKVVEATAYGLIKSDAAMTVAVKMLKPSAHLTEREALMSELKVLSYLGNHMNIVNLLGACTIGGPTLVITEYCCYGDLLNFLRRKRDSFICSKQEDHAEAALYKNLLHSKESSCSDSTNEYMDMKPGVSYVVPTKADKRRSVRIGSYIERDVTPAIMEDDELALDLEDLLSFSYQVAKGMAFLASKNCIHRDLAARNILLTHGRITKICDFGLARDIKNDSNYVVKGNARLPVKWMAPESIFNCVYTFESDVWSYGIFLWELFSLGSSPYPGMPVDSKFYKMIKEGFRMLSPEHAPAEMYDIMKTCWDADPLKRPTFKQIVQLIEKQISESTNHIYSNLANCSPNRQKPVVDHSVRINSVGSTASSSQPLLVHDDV

One may read the IC50 as the midpoint of a concentration-inhibition curve. For orientation: inhibition means how much of the control response was suppressed. In the case of `COc1cc2nccc(Oc3ccc(NC(=S)NC(=O)c4ccc(C)cc4)c(Cl)c3)c2cc1OC` [Example 1102, N-{2-Chloro-4-[(6,7-dimethoxy-4-quinolyl)oxy]phenyl}-N′-(4-methylbenzoyl)thiourea], on PDGF-Ra, the IC50 was greater than 0.1 µM and the inhibition at 0.1 µM was 38%. Moreover, the inhibition at 1 µM at c-kit (setting [1]) was 11%.

Consider `COc1cc2nccc(Oc3ccc(NC(=S)NC(=O)c4ccccc4OC)c(Cl)c3)c2cc1OC` [Example 1103, N-{2-Chloro-4-[(6,7-dimethoxy-4-quinolyl)oxy]phenyl}-N′-(2-methoxybenzoyl)thiourea], for which, at PDGF-Ra, the IC50 is greater than 0.1 µM and the inhibition at 0.1 µM stood at 25%. The inhibition at 1 µM at c-kit (setting [1]) turned out to be 3%.

For the compound `COc1cc2nccc(Oc3ccc(NC(=S)NC(=O)c4ccccc4Cl)c(Cl)c3)c2cc1OC` [Example 1104, N-(2-Chlorobenzoyl)-N′-{2-chloro-4-[(6,7-dimethoxy-4-quinolyl)oxy]phenyl}thiourea], on PDGF-Ra, the IC50 is 0.077 µM. Also, on c-kit (setting [1]), the inhibition at 1 µM is 23%.

Consider `COc1cc2nccc(Oc3ccc(NC(=S)NC(=O)Cc4ccccc4)c(C)c3C)c2cc1OC` [Example 1105, N-{4-[(6,7-Dimethoxy-4-quinolyl)oxy]-2,3-dimethylphenyl}-N′-(2-phenylacetyl)thiourea], for which, on PDGF-Ra, the IC50 was greater than 0.1 µM and the inhibition at 0.1 µM was 31%. On c-kit (figure in parentheses in −( ), at 1000 nM, 1 µM), the “c-kit inhibition (%) at 1000 nM” value is on record as “−(1) %”.

Regarding `COc1cc2nccc(Oc3ccc(NC(=S)NC(=O)CCC4CCCC4)c(Cl)c3)c2cc1OC` [Example 1106, N-{2-Chloro-4-[(6,7-dimethoxy-4-quinolyl)oxy]phenyl}-N′-(3-cyclopentylpropanoyl)thiourea], on PDGF-Ra, the IC50 is greater than 0.1 µM and the inhibition at 0.1 µM was 30%. For the same compound, the inhibition at 1 µM on c-kit (setting [1]) was 0%.

As to `COc1cc2nccc(Oc3ccc(NC(=S)NC(=O)c4ccccc4)c(Cl)c3)c2cc1OC` [Example 1107, N-Benzoyl-N′-{2-chloro-4-[(6,7-dimethoxy-4-quinolyl)oxy]phenyl}thiourea], at PDGF-Ra, the IC50 was greater than 0.1 µM and the inhibition at 0.1 µM was 46%. In addition, at c-kit (setting [1]), the inhibition at 1 µM is 24%.

With `COc1cc2nccc(Oc3ccc(NC(=S)NC(=O)c4cc(Cl)cc(Cl)c4)c(F)c3)c2cc1OC` [Example 1122, N-(3,5-Dichlorobenzoyl)-N′-{4-[(6,7-dimethoxy-4-quinolyl)oxy]-2-fluorophenyl}thiourea], at PDGF-Ra, the concentration for half-maximal inhibition (IC50) was greater than 0.1 µM and the inhibition at 0.1 µM came out at 48%. Besides, the inhibition at 1 µM at c-kit (setting [1]) amounted to 26%.

With `COc1cc2nccc(Oc3ccc(NC(=S)NC(=O)c4ccc(-c5ccccc5)cc4)c(F)c3)c2cc1OC` [Example 1125, N-(4-Phenylbenzoyl)-N′-{4-[(6,7-dimethoxy-4-quinolyl)oxy]-2-fluorophenyl}thiourea], at PDGF-Ra, the IC50 is greater than 0.1 µM and the inhibition at 0.1 µM came out at 22%. Also, the inhibition at 1 µM at c-kit (setting [1]) worked out at 8%.

Take `COc1cc2nccc(Oc3ccc(NC(=S)NC(=O)c4ccc5c(c4)OCO5)cc3Cl)c2cc1OC` [Example 1126, N-(1,3-Benzodioxol-5-ylcarbonyl)-N′-{3-chloro-4-[(6,7-dimethoxy-4-quinolyl)oxy]phenyl}thiourea]: at PDGF-Ra, the IC50 is greater than 0.1 µM and the inhibition at 0.1 µM came to 70%. The inhibition at 1 µM on c-kit (setting [1]) is 35%.

For `CCCCCCCCc1ccc(C(=O)NC(=S)Nc2ccc(Oc3ccnc4cc(OC)c(OC)cc34)cc2)cc1` [Example 1128, N-{4-[(6,7-Dimethoxy-4-quinolyl)oxy]phenyl}-N′-(4-octylbenzoyl)thiourea], at PDGF-Ra, the 50% inhibitory concentration (IC50) is greater than 0.1 µM and the inhibition at 0.1 µM was 47%. Moreover, at c-kit (setting [1]), the inhibition at 1 µM stood at 17%.

In the case of `COc1cc2nccc(Oc3ccc(NC(=S)NC(=O)N4CCc5ccccc5C4)cc3)c2cc1OC` [Example 1130, N-{4-[(6,7-Dimethoxy-4-quinolyl)oxy]phenyl}-N′-(1,2,3,4-tetrahydro-2-isoquinolylcarbonyl)thiourea], the IC50 is less than 0.01 µM on PDGF-Ra and 0.547 µM on c-kit.

Regarding `COc1cc2nccc(Oc3ccc(NC(=S)NC(=O)CCC4CCCC4)cc3)c2cc1OC` [Example 1131, N-(3-Cyclopentylpropanoyl)-N′-{4-[(6,7-dimethoxy-4-quinolyl)oxy]phenyl}thiourea], the IC50 at PDGF-Ra amounted to 0.051 µM; on c-kit, 0.192 µM.

Take `COc1cc2ncnc(Oc3ccc(NC(=S)NC(=O)CCC4CCCC4)cc3)c2cc1OC` [Example 1132, N-(3-Cyclopentylpropanoyl)-N′-{4-[(6,7-dimethoxy-4-quinazolinyl)oxy]phenyl}thiourea]: the IC50 at PDGF-Ra is less than 0.01 µM; on c-kit, 0.146 µM.

Consider `COc1cc2ncnc(Oc3ccc(NC(=S)NC(=O)CCc4ccccc4C)cc3)c2cc1OC` [Example 1133, N-{4-[(6,7-Dimethoxy-4-quinazolinyl)oxy]phenyl}-N′-[3-(2-methylphenyl)propanoyl]thiourea], for which the concentration for half-maximal inhibition (IC50) at PDGF-Ra was less than 0.01 µM; at c-kit it was 0.042 µM.

Take `COc1cc2nccc(Oc3ccc(NC(=S)NC(=O)CCSC)cc3)c2cc1OC` [Example 1135, N-{4-[(6,7-Dimethoxy-4-quinolyl)oxy]phenyl}-N′-[3-(methylsulphenyl)propanoyl]thiourea]: the IC50 was less than 0.01 µM at PDGF-Ra and 0.239 µM at c-kit.

Regarding `COc1cc2nccc(Oc3ccc(NC(=S)NC(=O)c4ccc(CCl)cc4)cc3)c2cc1OC` [Example 1136, N-[4-(Chloromethyl)benzoyl]-N′-{4-[(6,7-dimethoxy-4-quinolyl)oxy]phenyl}thiourea], the values for the IC50 on PDGF-Ra and at c-kit were 0.014 µM and 0.639 µM, respectively.

As to `COc1cc2nccc(Oc3ccc(NC(=S)NC(=O)c4ccc(CCl)cc4)cc3Cl)c2cc1OC` [Example 1137, N-{3-Chloro-4-[(6,7-dimethoxy-4-quinolyl)oxy]phenyl}-N′-[4-(chloromethyl)benzoyl]thiourea], the half-inhibitory concentration (IC50) on PDGF-Ra worked out at 0.028 µM. In addition, on c-kit (setting [1]), the inhibition at 1 µM worked out at 38%.

On to `COc1cc2ncnc(Oc3ccc(NC(=S)NC(=O)CCCc4ccccc4)cc3)c2cc1OC` [Example 1139, N-{4-[(6,7-Dimethoxy-4-quinazolinyl)oxy]phenyl}-N′-(4-phenylbutanoyl)thiourea], for which the IC50 at PDGF-Ra is 0.012 µM; on c-kit, 0.783 µM.

For the compound `COc1ccccc1CCC(=O)NC(=S)Nc1ccc(Oc2ncnc3cc(OC)c(OC)cc23)cc1` [Example 1141, N-{4-[(6,7-Dimethoxy-4-quinazolinyl)oxy]phenyl}-N′-[3-(2-methoxyphenyl)propanoyl]thiourea], the IC50 at PDGF-Ra was less than 0.01 µM; at c-kit, 0.416 µM.

On to `COc1cc2ncnc(Oc3ccc(NC(=S)NC(=O)C(C)Oc4ccccc4Cl)cc3)c2cc1OC` (centres unmarked) [Example 1144, N-[2-(2-Chlorophenoxy)propanoyl]-N′-{4-[(6,7-dimethoxy-4-quinazolinyl)oxy]phenyl}thiourea], for which, on PDGF-Ra, the IC50 came out at 0.028 µM. Moreover, on c-kit (setting [1]), the inhibition at 1 µM was 30%.

With `COc1cc2nccc(Oc3ccc(NC(=S)NC(=O)c4ccc(C)s4)cc3)c2cc1OC` [Example 1146, N-{4-[(6,7-Dimethoxy-4-quinolyl)oxy]phenyl}-N′-[(5-methyl-2-thienyl)carbonyl]thiourea], the half-maximal inhibitory concentration (IC50) at PDGF-Ra was 0.023 µM; on c-kit, 0.552 µM.

With `COc1cc2nccc(Oc3ccc(NC(=S)NC(=O)Cc4ccccc4)cc3Cl)c2cc1OC` [Example 1147, N-{3-Chloro-4-[(6,7-dimethoxy-4-quinolyl)oxy]phenyl}-N′-(2-phenylacetyl)thiourea], the IC50 on PDGF-Ra is 0.01 µM; at c-kit it was 0.105 µM.
